Test results as given in PubChem BioAssay AID1963842 (Molecular Pharmacology Branch, DTP, NCI, 2024).

Tested on: 677734-321-R-J1-PDC complex spheroid viability
Test: Anticancer human tumor 677734-321-R-J1-PDC patient-derived soft tissue sarcoma cell line growth inhibition [POLQ]
Conditions: for IC50: curve of first compound; for viability, T/C: stronger effect = lower value
Procedure, shortened: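 Three-cell-type spheroids modelling solid tumor plus stroma served as the readout system; POL inhibitors were tested individually and in combination, concentration ranges set by clinical Cmax where known.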

[1] = second compound 0.0316 µM, first compound 0.0316 µM
[2] = second compound 0.0316 µM, first compound 0.1 µM
[3] = second compound 0.0316 µM, first compound 0.316 µM
[4] = second compound 0.0316 µM, first compound 1 µM
[5] = second compound 0.0316 µM, first compound 3.16 µM
[6] = second compound 0.0316 µM, first compound 10 µM
[7] = second compound 0.1 µM, first compound 0.0316 µM
[8] = second compound 0.1 µM, first compound 0.1 µM
[9] = second compound 0.1 µM, first compound 0.316 µM
[10] = second compound 0.1 µM, first compound 1 µM
[11] = second compound 0.1 µM, first compound 3.16 µM
[12] = second compound 0.1 µM, first compound 10 µM
[13] = second compound 0.316 µM, first compound 0.0316 µM
[14] = second compound 0.316 µM, first compound 0.1 µM
[15] = second compound 0.316 µM, first compound 0.316 µM
[16] = second compound 0.316 µM, first compound 1 µM
[17] = second compound 0.316 µM, first compound 3.16 µM
[18] = second compound 0.316 µM, first compound 10 µM
[19] = second compound 1 µM, first compound 0.0316 µM
[20] = second compound 1 µM, first compound 0.1 µM
[21] = second compound 1 µM, first compound 0.316 µM
[22] = second compound 1 µM, first compound 1 µM
[23] = second compound 1 µM, first compound 3.16 µM
[24] = second compound 1 µM, first compound 10 µM
[25] = second compound 3.16 µM, first compound 0.0316 µM
[26] = second compound 3.16 µM, first compound 0.1 µM
[27] = second compound 3.16 µM, first compound 0.316 µM
[28] = second compound 3.16 µM, first compound 1 µM
[29] = second compound 3.16 µM, first compound 3.16 µM
[30] = second compound 3.16 µM, first compound 10 µM
[31] = second compound 10 µM, first compound 0.0316 µM
[32] = second compound 10 µM, first compound 0.1 µM
[33] = second compound 10 µM, first compound 0.316 µM
[34] = second compound 10 µM, first compound 1 µM
[35] = second compound 10 µM, first compound 3.16 µM
[36] = second compound 10 µM, first compound 10 µM
[37] = second compound 0.0316 µM, first compound 0.00316 µM
[38] = second compound 0.0316 µM, first compound 0.01 µM
[39] = second compound 0.1 µM, first compound 0.00316 µM
[40] = second compound 0.1 µM, first compound 0.01 µM
[41] = second compound 0.316 µM, first compound 0.00316 µM
[42] = second compound 0.316 µM, first compound 0.01 µM
[43] = second compound 1 µM, first compound 0.00316 µM
[44] = second compound 1 µM, first compound 0.01 µM
[45] = second compound 3.16 µM, first compound 0.00316 µM
[46] = second compound 3.16 µM, first compound 0.01 µM
[47] = second compound 10 µM, first compound 0.00316 µM
[48] = second compound 10 µM, first compound 0.01 µM
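Note: spheroids exposed to compounds for one week.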
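Throughout, for viability, T/C: 100% = vehicle DMSO treated spheroids.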

SMILES: O=C(c1cc(Cc2n[nH]c(=O)c3ccccc23)ccc1F)N1CCN(C(=O)C2CC2)CC1 + COC1C(OC(N)=O)C(O)C(Oc2ccc3c(O)c(NC(=O)c4ccc(O)c(CC=C(C)C)c4)c(=O)oc3c2C)OC1(C)C
- IC50 (second compound 0.0316 µM): > 10 µM
- IC50 (second compound 0.1 µM): > 10 µM
- IC50 (second compound 0.316 µM): > 10 µM
- IC50 (second compound 1 µM): > 10 µM
- IC50 (second compound 3.16 µM): > 10 µM
- IC50 (second compound 10 µM): > 10 µM
- viability, T/C [1]: 108%
- viability, T/C [2]: 105%
- viability, T/C [3]: 103%
- viability, T/C [4]: 110%
- viability, T/C [5]: 102%
- viability, T/C [6]: 86.4%
- viability, T/C [7]: 104%
- viability, T/C [8]: 112%
- viability, T/C [9]: 101%
- viability, T/C [10]: 104%
- viability, T/C [11]: 107%
- viability, T/C [12]: 79.6%
- viability, T/C [13]: 112%
- viability, T/C [14]: 111%
- viability, T/C [15]: 104%
- viability, T/C [16]: 111%
- viability, T/C [17]: 111%
- viability, T/C [18]: 78.1%
- viability, T/C [19]: 108%
- viability, T/C [20]: 105%
- viability, T/C [21]: 111%
- viability, T/C [22]: 99.9%
- viability, T/C [23]: 107%
- viability, T/C [24]: 81.2%
- viability, T/C [25]: 117%
- viability, T/C [26]: 111%
- viability, T/C [27]: 113%
- viability, T/C [28]: 103%
- viability, T/C [29]: 100%
- viability, T/C [30]: 87.3%
- viability, T/C [31]: 118%
- viability, T/C [32]: 106%
- viability, T/C [33]: 108%
- viability, T/C [34]: 112%
- viability, T/C [35]: 103%
- viability, T/C [36]: 88%

SMILES: CC1COCCN1c1cc(C2(O)CC3CCC(C2)O3)c2cnn(-c3ccn[nH]3)c2n1 (stereo not drawn) + Cc1cccc(N(C)C(=O)C2C(O)CCN2c2nc(C)cc(C(F)(F)F)c2C#N)c1
- IC50 (second compound 0.0316 µM): 0.0962 µM
- IC50 (second compound 0.1 µM): 0.122 µM
- IC50 (second compound 0.316 µM): 0.0957 µM
- IC50 (second compound 1 µM): 0.0991 µM
- IC50 (second compound 3.16 µM): 0.0832 µM
- IC50 (second compound 10 µM): 0.0803 µM
- viability, T/C [1]: 76.5%
- viability, T/C [2]: 49%
- viability, T/C [3]: 26.5%
- viability, T/C [4]: 19%
- viability, T/C [5]: 17.3%
- viability, T/C [6]: 17.8%
- viability, T/C [7]: 87.8%
- viability, T/C [8]: 54.8%
- viability, T/C [9]: 27.2%
- viability, T/C [10]: 22.5%
- viability, T/C [11]: 22.2%
- viability, T/C [12]: 16.9%
- viability, T/C [13]: 83.6%
- viability, T/C [14]: 48.9%
- viability, T/C [15]: 28.1%
- viability, T/C [16]: 21%
- viability, T/C [17]: 18.3%
- viability, T/C [18]: 15.2%
- viability, T/C [19]: 94.2%
- viability, T/C [20]: 49.6%
- viability, T/C [21]: 26.1%
- viability, T/C [22]: 18%
- viability, T/C [23]: 17.4%
- viability, T/C [24]: 16.4%
- viability, T/C [25]: 85.5%
- viability, T/C [26]: 43.4%
- viability, T/C [27]: 25.1%
- viability, T/C [28]: 18.4%
- viability, T/C [29]: 28.6%
- viability, T/C [30]: 14%
- viability, T/C [31]: 85.6%
- viability, T/C [32]: 41.3%
- viability, T/C [33]: 24.2%
- viability, T/C [34]: 21.8%
- viability, T/C [35]: 16.9%
- viability, T/C [36]: 15.7%

SMILES: CCc1c2c(nc3ccc(O)cc13)-c1cc3c(c(=O)n1C2)COC(=O)[C@]3(O)CC + Cc1cccc(N(C)C(=O)C2C(O)CCN2c2nc(C)cc(C(F)(F)F)c2C#N)c1
- IC50 (second compound 0.0316 µM): < 0.00316 µM
- IC50 (second compound 0.1 µM): < 0.00316 µM
- IC50 (second compound 0.316 µM): < 0.00316 µM
- IC50 (second compound 1 µM): < 0.00316 µM
- IC50 (second compound 3.16 µM): < 0.00316 µM
- IC50 (second compound 10 µM): < 0.00316 µM
- viability, T/C [37]: 34%
- viability, T/C [38]: 20.2%
- viability, T/C [1]: 5.31%
- viability, T/C [2]: 2.32%
- viability, T/C [3]: 1.63%
- viability, T/C [4]: 1.3%
- viability, T/C [39]: 26.2%
- viability, T/C [40]: 15.4%
- viability, T/C [7]: 5.43%
- viability, T/C [8]: 2.52%
- viability, T/C [9]: 1.76%
- viability, T/C [10]: 2.63%
- viability, T/C [41]: 28%
- viability, T/C [42]: 18.8%
- viability, T/C [13]: 4.71%
- viability, T/C [14]: 2.82%
- viability, T/C [15]: 1.97%
- viability, T/C [16]: 2.54%
- viability, T/C [43]: 30.3%
- viability, T/C [44]: 15.7%
- viability, T/C [19]: 5.16%
- viability, T/C [20]: 2.53%
- viability, T/C [21]: 1.97%
- viability, T/C [22]: 2.5%
- viability, T/C [45]: 36.4%
- viability, T/C [46]: 13.5%
- viability, T/C [25]: 4.68%
- viability, T/C [26]: 2.35%
- viability, T/C [27]: 2.92%
- viability, T/C [28]: 1.89%
- viability, T/C [47]: 28.2%
- viability, T/C [48]: 15.4%
- viability, T/C [31]: 5.22%
- viability, T/C [32]: 3.2%
- viability, T/C [33]: 3.11%
- viability, T/C [34]: 1.34%

SMILES: CC[C@@]1(O)C(=O)OCc2c1cc1n(c2=O)Cc2cc3c(CN(C)C)c(O)ccc3nc2-1 + COC1C(OC(N)=O)C(O)C(Oc2ccc3c(O)c(NC(=O)c4ccc(O)c(CC=C(C)C)c4)c(=O)oc3c2C)OC1(C)C
- IC50 (second compound 0.0316 µM): 0.0257 µM
- IC50 (second compound 0.1 µM): 0.0246 µM
- IC50 (second compound 0.316 µM): 0.0264 µM
- IC50 (second compound 1 µM): 0.0236 µM
- IC50 (second compound 3.16 µM): 0.0252 µM
- IC50 (second compound 10 µM): 0.0288 µM
- viability, T/C (second compound 0.0316 µM, first compound 0.000316 µM): 104%
- viability, T/C (second compound 0.0316 µM, first compound 0.001 µM): 112%
- viability, T/C [37]: 105%
- viability, T/C [38]: 105%
- viability, T/C [1]: 37.1%
- viability, T/C [2]: 16.8%
- viability, T/C (second compound 0.1 µM, first compound 0.000316 µM): 109%
- viability, T/C (second compound 0.1 µM, first compound 0.001 µM): 108%
- viability, T/C [39]: 109%
- viability, T/C [40]: 100%
- viability, T/C [7]: 33.8%
- viability, T/C [8]: 18.8%
- viability, T/C (second compound 0.316 µM, first compound 0.000316 µM): 105%
- viability, T/C (second compound 0.316 µM, first compound 0.001 µM): 117%
- viability, T/C [41]: 94.2%
- viability, T/C [42]: 103%
- viability, T/C [13]: 39.3%
- viability, T/C [14]: 16.3%
- viability, T/C (second compound 1 µM, first compound 0.000316 µM): 113%
- viability, T/C (second compound 1 µM, first compound 0.001 µM): 109%
- viability, T/C [43]: 106%
- viability, T/C [44]: 106%
- viability, T/C [19]: 29.3%
- viability, T/C [20]: 15.4%
- viability, T/C (second compound 3.16 µM, first compound 0.000316 µM): 120%
- viability, T/C (second compound 3.16 µM, first compound 0.001 µM): 108%
- viability, T/C [45]: 110%
- viability, T/C [46]: 98.2%
- viability, T/C [25]: 34.5%
- viability, T/C [26]: 16%
- viability, T/C (second compound 10 µM, first compound 0.000316 µM): 109%
- viability, T/C (second compound 10 µM, first compound 0.001 µM): 106%
- viability, T/C [47]: 106%
- viability, T/C [48]: 98.9%
- viability, T/C [31]: 45.6%
- viability, T/C [32]: 18.7%
